According to patent publication US20050158775A1, “Novel plamid DNA comprising reoprter gene DNA and use of the same” (priority 1997, published 2005):

Key:
[1] = target: T1, Gal4-human PPAR α chimeric receptor protein (Homo sapiens, UniProt Q07869); format: cell-based
T1 construct: the 167th serine (Ser) to the 468th tyrosine (Tyr) of the human PPAR α receptor; expressed in transfected cells
T1 sequence (Q07869 167-468): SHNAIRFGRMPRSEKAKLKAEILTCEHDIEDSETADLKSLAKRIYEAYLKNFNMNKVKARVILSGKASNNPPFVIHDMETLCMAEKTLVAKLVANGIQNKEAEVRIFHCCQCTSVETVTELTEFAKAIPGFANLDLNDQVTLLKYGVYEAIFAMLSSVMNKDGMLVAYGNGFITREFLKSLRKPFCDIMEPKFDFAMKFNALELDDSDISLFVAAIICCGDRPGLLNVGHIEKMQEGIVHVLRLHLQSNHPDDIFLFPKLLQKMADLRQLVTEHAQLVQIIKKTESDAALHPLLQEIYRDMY

[2] = target: T2, Gal4-human PPAR δ chimeric receptor protein (Homo sapiens, UniProt Q03181); format: cell-based
T2 construct: the 139th serine (Ser) to the 441st tyrosine (Tyr) of the human PPAR δ receptor; expressed in transfected cells
T2 sequence (Q03181 139-441): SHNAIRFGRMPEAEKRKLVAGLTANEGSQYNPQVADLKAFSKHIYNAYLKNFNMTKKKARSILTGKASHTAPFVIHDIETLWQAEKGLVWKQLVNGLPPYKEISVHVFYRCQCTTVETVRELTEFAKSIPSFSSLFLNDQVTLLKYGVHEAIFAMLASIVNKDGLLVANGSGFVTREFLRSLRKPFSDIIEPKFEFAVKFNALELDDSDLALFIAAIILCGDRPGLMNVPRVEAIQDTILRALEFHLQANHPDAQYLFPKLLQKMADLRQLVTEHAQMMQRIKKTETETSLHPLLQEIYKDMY

[3] = target: T3, Gal4-human PPAR γ chimeric receptor protein (Homo sapiens, UniProt P37231)
T3 sequence (P37231 176-477 isoform P37231-2): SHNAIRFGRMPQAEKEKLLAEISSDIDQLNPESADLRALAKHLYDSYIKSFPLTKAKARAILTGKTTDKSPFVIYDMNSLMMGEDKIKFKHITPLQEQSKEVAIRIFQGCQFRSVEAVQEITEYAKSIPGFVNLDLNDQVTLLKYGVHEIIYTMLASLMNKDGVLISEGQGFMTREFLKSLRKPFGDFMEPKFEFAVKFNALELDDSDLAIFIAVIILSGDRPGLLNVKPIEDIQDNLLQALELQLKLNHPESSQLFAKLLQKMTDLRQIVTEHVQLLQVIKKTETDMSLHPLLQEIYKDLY

Compound | cell death of PPAR α ligand-responsive cells [1] | cell death of PPAR δ ligand-responsive cells [2] | cell death of PPAR γ ligand-responsive cells [3]
CCCCCC#CCC#CCC#CCC#CCCCC(=O)O [ETYA] | cause dose-dependent cell death | do not cause cell death | –
Cc1cccc(Nc2cc(Cl)nc(SCC(=O)O)n2)c1C [Wy-14643] | cause dose-dependent cell death | – | do not cause cell death
